From PubChem BioAssay (NCI) come the findings set out here.

Some test systems named below: A498 renal; UACC-257 melanoma; NCI-H226 lung; HT29 colon; K-562 leukemia; NCI-H23 lung; ACHN renal; UO-31 renal; NCI-H522 lung; HOP-92 NSCLC.
What all share (test): NCI-60 cell line screen, 48 h

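These data come from cells grown in 96-well plates and exposed to compound for 48 hours at five concentrations. The concentration for 50% growth inhibition is given as GI50. At the TGI there is no net growth.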

With `O=C1CC(c2c(-c3ccccc3)[nH]c3ccccc23)C(=O)N1` (stereo unspecified), the TGI in the assay on A498 renal, in the assay with UACC-257 melanoma, in the assay with NCI-H226 lung, in the assay with HT29 colon, with K-562 leukemia and in the assay on NCI-H23 lung was more than 100 µM each time. The TGI in the assay with ACHN renal and with UO-31 renal was more than 100 µM throughout.

Regarding `C=C1CC2CCCC12C=O` (stereo unspecified), the TGI in the assay with UACC-257 melanoma, in the assay on HT29 colon, in the assay with NCI-H522 lung, with K-562 leukemia, with HOP-92 NSCLC and in the assay with NCI-H23 lung was more than 10 µM each time. Moreover, the TGI in the assay with ACHN renal is more than 10 µM.

In the case of `CC(=O)Nc1ccc(/C=c2\sc3nnc(CCC(=O)Nc4ccccc4Cl)n3c2=O)cc1`, the TGI with UACC-257 melanoma is more than 10 µM; with NCI-H226 lung it was 52.7 µM; in the assay with HT29 colon, more than 100 µM; in the assay on NCI-H522 lung it was 36.2 µM; in the assay on K-562 leukemia, 68.3 µM; in the assay with HOP-92 NSCLC it was 57.7 µM. The TGI with NCI-H23 lung, with ACHN renal and in the assay with UO-31 renal was more than 100 µM in each case.

Take `COc1ccc(C(CCC(C)=O)C(=O)O)cc1OC` (stereo unspecified): the TGI with A498 renal, with UACC-257 melanoma, with HT29 colon, in the assay on K-562 leukemia, in the assay on HOP-92 NSCLC and in the assay on NCI-H23 lung was more than 100 µM in each case. For the same molecule, in the assay with ACHN renal, the TGI was more than 100 µM.

For the molecule `C=C=C(C(=O)OC)S(=O)c1ccccc1[N+](=O)[O-]` (stereo unspecified), the TGI in the assay with A498 renal was more than 100 µM; with UACC-257 melanoma it was more than 100 µM; in the assay on NCI-H226 lung, more than 100 µM; in the assay on HT29 colon it was more than 100 µM; in the assay with NCI-H522 lung, 75.9 µM; in the assay on K-562 leukemia, more than 100 µM. Also, the TGI in the assay with NCI-H23 lung, with ACHN renal and with UO-31 renal was more than 100 µM throughout.

For the molecule `COc1cccc2ccc(C(=O)c3ccccc3)nc12`, the TGI in the assay with NCI-H226 lung, in the assay on NCI-H522 lung, with K-562 leukemia, in the assay with NCI-H23 lung and with ACHN renal was more than 100 µM each time.

As for `CN1C(=O)CCC2[C@@H]3CC=C4C[C@@H](O)CC[C@]4(C)C3CC[C@@]21C` (stereo partly specified), the TGI with A498 renal, in the assay on UACC-257 melanoma, in the assay on NCI-H226 lung, in the assay on HT29 colon, in the assay with K-562 leukemia and with NCI-H23 lung was more than 100 µM each time. Besides, the TGI in the assay with ACHN renal and with UO-31 renal was more than 100 µM each time.

On to `CN(C)c1ccc(/C=C/C(=O)[O-])cc1.CN(C)c1ccc(/C=C/C(=O)[O-])cc1.[Cu+2]`, for which the TGI is more than 86.4 µM in the assay on A498 renal; more than 100 µM with UACC-257 melanoma; more than 100 µM in the assay with NCI-H226 lung; more than 100 µM in the assay on HT29 colon; more than 100 µM in the assay on NCI-H522 lung; more than 100 µM with K-562 leukemia. Further, the TGI in the assay with NCI-H23 lung, in the assay with ACHN renal and in the assay on UO-31 renal was more than 100 µM in each case. Further, the GI50 with NCI-H23 lung is more than 100 µM.

Take `O=C(O)/C=C/C(=O)N1Cc2cc3ccccc3nc2C1`: the TGI in the assay on UACC-257 melanoma, in the assay on NCI-H226 lung, with HT29 colon, in the assay with NCI-H522 lung, with K-562 leukemia and in the assay with HOP-92 NSCLC was more than 100 µM throughout. Further, the TGI in the assay with NCI-H23 lung, in the assay on ACHN renal and with UO-31 renal was more than 100 µM throughout.

With `NCCCNc1nc2ccccc2c2c(=O)c3cc(F)cc(F)c3sc12`, the GI50 is 1.38 µM in the assay on A498 renal; 1.88 µM with UACC-257 melanoma; 10.9 µM in the assay on NCI-H226 lung; 1.65 µM in the assay on HOP-92 NSCLC; 1.78 µM with NCI-H23 lung; 1.65 µM in the assay with ACHN renal. Besides, in the assay on UO-31 renal, the GI50 is 1.48 µM. In addition, the TGI is 2.93 µM in the assay on A498 renal; 4.18 µM in the assay on UACC-257 melanoma; 29.1 µM in the assay with NCI-H226 lung; 12.6 µM in the assay on HOP-92 NSCLC; 3.36 µM in the assay with NCI-H23 lung; 3.06 µM with ACHN renal. In the assay on UO-31 renal, this molecule came in with a TGI of 2.88 µM.

For the molecule `CC[C@H](NC(=O)[C@H]1CCCCN1C)C(=O)N(C)[C@H](C[C@@H](OC(C)=O)c1nc(C(=O)N[C@@H](Cc2ccccc2)C[C@H](C)C(=O)O)cs1)C(C)C`, the GI50 with UACC-257 melanoma was more than 14.3 µM; with HT29 colon it was 0.00388 µM; in the assay on NCI-H522 lung, 0.00284 µM; in the assay with K-562 leukemia, 0.00209 µM; in the assay with HOP-92 NSCLC, 0.00585 µM; in the assay with NCI-H23 lung it was 0.0073 µM. Besides, the values for the GI50 with ACHN renal and in the assay on UO-31 renal were 0.0142 µM and 0.0741 µM, respectively. In addition, the TGI in the assay with UACC-257 melanoma was more than 14.3 µM; in the assay on NCI-H226 lung, more than 7.57 µM; in the assay with HT29 colon, more than 14.3 µM; in the assay on NCI-H522 lung it was 0.337 µM; in the assay on K-562 leukemia it was more than 14.3 µM; in the assay with HOP-92 NSCLC, more than 6.56 µM. The TGI in the assay with NCI-H23 lung, in the assay with ACHN renal and in the assay with UO-31 renal was more than 14.3 µM each time.

As to `COC1OC(CO)C(O)C(OC(C)=O)C1NC(=O)N(CCCl)N=O` (stereo unspecified), the TGI in the assay with A498 renal, with UACC-257 melanoma, in the assay with NCI-H226 lung, with HT29 colon, with NCI-H522 lung and in the assay with K-562 leukemia was more than 100 µM each time. In addition, the TGI in the assay on NCI-H23 lung and with ACHN renal was more than 100 µM throughout.

On to `CCC(CC)c1nc(Nc2ccc(C(=O)OC)cc2)c2ccccc2n1`, for which the GI50 was 9.73 µM with UACC-257 melanoma; 7.93 µM in the assay with NCI-H226 lung; 8.65 µM in the assay on NCI-H522 lung; 7.39 µM in the assay with K-562 leukemia; 18.6 µM in the assay on HOP-92 NSCLC; 15.5 µM in the assay on NCI-H23 lung. The GI50 is 8.1 µM in the assay with ACHN renal and 7.94 µM in the assay with UO-31 renal. Further, the TGI in the assay on UACC-257 melanoma is 20 µM; in the assay on NCI-H226 lung, 22.8 µM; with NCI-H522 lung it was 18.4 µM; with K-562 leukemia, more than 31.6 µM; in the assay with HOP-92 NSCLC, more than 26.4 µM; with NCI-H23 lung, more than 37.4 µM. The TGI with ACHN renal stood at 18.1 µM; in the assay with UO-31 renal, 15.4 µM.

On to `Nc1cc(F)ccc1CC(=O)O`, for which the TGI in the assay on A498 renal, with UACC-257 melanoma, in the assay on NCI-H226 lung, with HT29 colon, with NCI-H522 lung and in the assay with K-562 leukemia was more than 100 µM throughout. The TGI in the assay on NCI-H23 lung, with ACHN renal and in the assay with UO-31 renal was more than 100 µM each time.
